Values quoted from earlier work as cited in paper PMC11920646 (Frontiers in Pharmacology, 2025).

Legend:
[1] = humans ref Ripa et al., 2018; cited from earlier work
[2] = test system: IFN-γ release in human whole blood; parameters: method as in Hu et al., 2011; details: at concentrations each of 100–1000 nM ref Hu et al., 2011; cited from earlier work
[3] = test system: IL-6 release in A549 cells; parameters: method as in Hu et al., 2011; details: dagrocorat study ref Hu et al., 2011; cited from earlier work

Row | SMILES | t½ [1] [h] | inhibition of IFN-γ release in human whole blood [2] | inhibition of IL-6 release in A549 cells [3] [%]
1 | CC(C)[C@H](NC(=O)C(C)(F)F)[C@H](Oc1ccc2c(cnn2-c2ccc(=O)n(C)c2)c1)c1ccccc1 [mizacorat] | ~5 |  | 
2 | Cc1ncccc1NC(=O)c1ccc2c(c1)CC[C@@H]1C[C@@](O)(C(F)(F)F)CC[C@@]21Cc1ccccc1 [dagrocorat] |  | 60–70% | 78
